Counter-ions that a name gives are not always drawn.
Legend:
human adipocyte cells [1] = test: Cytotoxicity assay: metabolic activity (resazurin conversion) of human adipocytes; type: cell-based
Experimental: (§1) HWP were obtained in passage two and differentiated in vitro to mature adipocytes. Briefly, cells were initially cultured in preadipocyte growth medium at 37° C. and 5% CO2 to 70-80% confluency. Then, cells were seeded at 40,000 cells/ml into 96-well flat bottom tissue culture plates and incubated overnight to allow attachment. Differentiation was initiated by changing the medium to preadipopcyte differentiation medium for an additional 72 hrs. After differentiation was induced, the medium was replaced by adipocyte nutrition medium that was refreshed every 2-3 days over a period of 14 days until termination of differentiation. Differentiation status was checked via nile red staining of control cells.
The test items 1 to 8 were prepared according to Table 1 to yield respective stock solutions. Said stock solutions were further diluted in assay media to obtain the double concentrated working solutions, which were subsequently diluted 1:2 in the final assay. […] Deoxycholate Na was selected as “reference compound”.
(§2) For the cytotoxicity assays in this study pre-adipocytes were seeded at 40,000 cells/ml into a 96-well microtiter flat bottom plate. The test items were prepared in separate plates starting with the double concentrated maximal test concentration followed by a 1:2 serial dilution (Chloroquine and Fluoxetine 1:3) and then added to the cells. The test items were tested at 6 replicates/concentration. Each plate included negative controls (media plus solvent, 6 replicates), a drug interference control (all concentrations, duplicates), a background control (14 replicates), a positive (=cytotoxic) control (6 replicates doxorubicin, 1 μM final) and a positive control for maximal LDH-release (2 replicates, 2% Triton-x 100 final).
(§3) Relative cell viability was determined after 48 hrs exposure based on metabolic activity (i.e. resazurin conversion). Using a Victor^3 1420 Multilabel Counter, the resazurin conversion to the fluorescent resorufin by metabolically active cells was recorded at 560Ex/590Em. Membrane integrity was measured after 6 hrs and 48 hrs and the enzymatic activity of released LDH in the cell supernatant after 30 min of incubation at 492 nmabsorption/690 nmreference by a spectrophotometer. The volume withdrawn from the cultures for the LDH-assay was not replaced to keep cells in a less disturbed environment. The assay was conducted in a multiplexed format.
In order to derive meaningful IC50 values from the primary data, the entire biological window of activity ranging from 0% to 100% viability should be covered and the resolution has to be sufficient. To improve data quality, the serial dilution factor used in previous experiments was reduced to a 1:2 and 1:3 dilution. […] IC50 (half maximal inhibitory concentration, calculated via Sigma Plot 10) values were determined for each test substance 1 to 8.
(§4) The effects on cytotoxicity in human adipocyte cells of a further 9 compounds were tested. The experimental set-up was identical to the one in example 1.

human adipocyte cells [2] = test: Membrane integrity: LDH release from human adipocytes (LDH assay); type: cell-based; details: for Rel. max. LDH release [%] 48 hrs: Example 1, 48 hrs, relative to Triton-x 100 maximal LDH release; for IC50: read-out: IC50 48 hrs LDH, Example 2, 48 hrs
Experimental: as §1, §2, §3
For the dose-response relationship, absolute absorption (OD treated wells−background) was plotted against the test item concentrations representing LDH leakage from the cells. For a better estimation of the test items' potential influencing the membrane integrity, relative, maximal LDH release in percent (see Table 2) was also calculated according to the following formula: […]
as §4

subcutaneous fat-tissue = details: rats
Human white adipocytes = test: Apoptosis/necrosis detection, Annexin V-FITC/PI flow cytometry; type: cell-based; details: for apoptosis/necrosis induction in human adipocytes (in words): 5, 24, 48 hrs, concentrations as in Table 4
Source text: The apoptotic program is characterized by certain morphologic features. Loss of plasma membrane asymmetry is a well established indicator for apoptotic cells. In apoptotic cells, the membrane phospholipid phosphatidylserine (PS) is translocated from the inner to the outer leaflet of the plasma membrane, thereby exposing PS to the external environment. In general, this PS translocation is preceded by caspase activation. Annexin V labelled with FITC is a Ca^2+ dependent phospholipid-binding protein with high affinity for PS and binds to cells with externalized PS. Cells stained with Annexin V*FITC are therefore considered in an early apoptotic stage.
Staining with Annexin V-FITC is typically used in conjunction with a vital dye such as propidium iodide (PI) to allow discrimination between early apoptotic and necrotic cells. Necrotic dying cells are PI positive only. Cells that are viable are Annexin V and PI negative; cells that entered apoptosis are Annexin V positive and PI negative and cells that are in post apoptotic and/or necrotic phase are both Annexin V and PI positive.
Human white adipocytes that had been differentiated in vitro from pre-adipocytes as describe above were used. Measurements were performed after 5 hrs to catch early apoptotic/necrotic events and after 24 hrs and 48 hrs for later stages. Naringenin at 500 μM (reported to induce apoptosis in adipocytes) was used as positive control and media plus solvent was used as negative control. Each compound was tested in three different concentrations. […] Two more concentrations, one below and one above the IC50 were added.
Flow cytometry was performed with a dual laser FC500. After completion of the staining procedure, tubes were grouped into a FC500 carousel for semi-automated data acquisition. Cells were first acquired in “Setup” mode to tune the parameters FS, SS, FL1 and FL2. After completion of the setup, baseline compensation was switched on and cells were acquired. Cells were acquired without life-gate but using FS threshold to exclude debris. All cells were acquired using individually corrected settings.
After completion of data acquisition, analysis was done using the CXP software. If necessary, software-based post acquisition compensation was performed to fine-correct for fluorescence overlap not adjusted for during the acquisition phase. Quadrant markers were set based on the negative controls.

[3] = Homo sapiens, Adipocyte, read-out: IC50 (metabolic activity after 48 hrs), Example 1, 48 hrs exposure, resazurin
[4] = 1 mg/mL, 300 μL s.c. Day 1, 7, 28, histology day 29
[5] = Homo sapiens, Adipocyte, read-out: IC50 48 hrs Resazurin, Example 2, 48 hrs

CC(CCc1ccccc1)NCC(O)c1ccc(O)c(C(N)=O)c1 (stereo not drawn) [Test substance 7, Labetalol HCl]
IC50 (human adipocyte cells [1]; [3]): 659 µM
Rel. max. LDH release [%] 48 hrs (human adipocyte cells [2]): 101.1%

CNCCC(Oc1ccc(C(F)(F)F)cc1)c1ccccc1 (stereo not drawn) [Test substance 4, Fluoxetine HCl]
IC50 (human adipocyte cells [1]; [3]): 52 µM
Rel. max. LDH release [%] 48 hrs (human adipocyte cells [2]): 101.0%
degree of histological changes at administration sites (subcutaneous connective and/or adipose tissue) (subcutaneous fat-tissue; [4]): minimal or mild in degree
edema at administration sites (subcutaneous fat-tissue; [4]): minimal or mild
fibrosis at administration sites (subcutaneous fat-tissue; [4]): minimal or mild
haemorrhage at administration sites (subcutaneous fat-tissue; [4]): minimal or mild
infiltrates of granulocytes at administration sites (subcutaneous fat-tissue; [4]): minimal
infiltrates of mononuclear cells at administration sites (subcutaneous fat-tissue; [4]): minimal to moderate
single cell death of inflammatory cells and/or connective tissue at administration sites (subcutaneous fat-tissue; [4]): minimal
adipocytolysis (concluded from inflammatory reaction) (subcutaneous fat-tissue; repetitive s.c. injection): causes adipocytolysis
primary mode of cell death (Human white adipocytes): fast and strong apoptosis induction
Early Apoptosis [A-V*/PI*] (Human white adipocytes; 40 μM, 5 hrs): 26.9
Necrosis/ Late Apoptosis [A-V*/PI*] (Human white adipocytes; 40 μM, 5 hrs): 0
Necrosis/ Late Apoptosis [A-V*/PI*] (Human white adipocytes; 40 μM, 24 hrs): 2.6
Normal [A-V*/PI] (Human white adipocytes; 40 μM, 24 hrs): 49.9
Early Apoptosis [A-V*/PI*] (Human white adipocytes; 40 μM, 48 hrs): 22.7
Necrosis/ Late Apoptosis [A-V*/PI*] (Human white adipocytes; 40 μM, 48 hrs): 7.7
Early Apoptosis [A-V*/PI*] (Human white adipocytes; 60 μM, 5 hrs): 58.5
Necrosis/ Late Apoptosis [A-V*/PI*] (Human white adipocytes; 60 μM, 5 hrs): 1.3
Normal [A-V*/PI] (Human white adipocytes; 60 μM, 5 hrs): 45.2
Early Apoptosis [A-V*/PI*] (Human white adipocytes; 60 μM, 24 hrs): 78.7
Necrosis/ Late Apoptosis [A-V*/PI*] (Human white adipocytes; 60 μM, 24 hrs): 5.5
Normal [A-V*/PI] (Human white adipocytes; 60 μM, 24 hrs): 14.7
Early Apoptosis [A-V*/PI*] (Human white adipocytes; 60 μM, 48 hrs): 37.9
Necrosis/ Late Apoptosis [A-V*/PI*] (Human white adipocytes; 60 μM, 48 hrs): 19.8
Normal [A-V*/PI] (Human white adipocytes; 60 μM, 48 hrs): 42.3
cells apoptotic (Human white adipocytes; 80 μM, 5 h): more than 50%
Necrosis/ Late Apoptosis [A-V*/PI*] (Human white adipocytes; 80 μM, 5 hrs): 1.6
Normal [A-V*/PI] (Human white adipocytes; 80 μM, 5 hrs): 47
Early Apoptosis [A-V*/PI*] (Human white adipocytes; 80 μM, 24 hrs): 41.9
Necrosis/ Late Apoptosis [A-V*/PI*] (Human white adipocytes; 80 μM, 24 hrs): 44.1
Normal [A-V*/PI] (Human white adipocytes; 80 μM, 24 hrs): 14
Necrosis/ Late Apoptosis [A-V*/PI*] (Human white adipocytes; 80 μM, 48 hrs): 42.2
Normal [A-V*/PI] (Human white adipocytes; 80 μM, 48 hrs): 2.7
apoptosis/necrosis induction in human adipocytes (in words) (Human white adipocytes): rapidly induced strong apoptosis

CN(C)CCCC1(c2ccc(F)cc2)OCc2cc(C#N)ccc21 (stereo not drawn) [Test substance 2, Citalopram HBr]
IC50 (human adipocyte cells [1]; [3]): 431 µM
Rel. max. LDH release [%] 48 hrs (human adipocyte cells [2]): 100.7%
Early Apoptosis [A-V*/PI*] (Human white adipocytes; 250 μM, 5 hrs): 21.5
Necrosis/ Late Apoptosis [A-V*/PI*] (Human white adipocytes; 250 μM, 5 hrs): 0.6
Normal [A-V*/PI] (Human white adipocytes; 250 μM, 5 hrs): 77.9
Early Apoptosis [A-V*/PI*] (Human white adipocytes; 250 μM, 24 hrs): 32.4
Necrosis/ Late Apoptosis [A-V*/PI*] (Human white adipocytes; 250 μM, 24 hrs): 2.2
Normal [A-V*/PI] (Human white adipocytes; 250 μM, 24 hrs): 65.4
Early Apoptosis [A-V*/PI*] (Human white adipocytes; 250 μM, 48 hrs): 23.1
Necrosis/ Late Apoptosis [A-V*/PI*] (Human white adipocytes; 250 μM, 48 hrs): 3.3
Normal [A-V*/PI] (Human white adipocytes; 250 μM, 48 hrs): 79.6
Early Apoptosis [A-V*/PI*] (Human white adipocytes; 350 μM, 5 hrs): 31.3
Necrosis/ Late Apoptosis [A-V*/PI*] (Human white adipocytes; 350 μM, 5 hrs): 1.5
Normal [A-V*/PI] (Human white adipocytes; 350 μM, 5 hrs): 67.2
Early Apoptosis [A-V*/PI*] (Human white adipocytes; 350 μM, 24 hrs): 57.6
Necrosis/ Late Apoptosis [A-V*/PI*] (Human white adipocytes; 350 μM, 24 hrs): 4.7
Normal [A-V*/PI] (Human white adipocytes; 350 μM, 24 hrs): 37.7
Early Apoptosis [A-V*/PI*] (Human white adipocytes; 350 μM, 48 hrs): 35.6
Necrosis/ Late Apoptosis [A-V*/PI*] (Human white adipocytes; 350 μM, 48 hrs): 10.7
Normal [A-V*/PI] (Human white adipocytes; 350 μM, 48 hrs): 53.7
Early Apoptosis [A-V*/PI*] (Human white adipocytes; 450 μM, 5 hrs): 30.5
Necrosis/ Late Apoptosis [A-V*/PI*] (Human white adipocytes; 450 μM, 5 hrs): 1.1
Normal [A-V*/PI] (Human white adipocytes; 450 μM, 5 hrs): 68.4
Early Apoptosis [A-V*/PI*] (Human white adipocytes; 450 μM, 24 hrs): 26
Necrosis/ Late Apoptosis [A-V*/PI*] (Human white adipocytes; 450 μM, 24 hrs): 23.9
Normal [A-V*/PI] (Human white adipocytes; 450 μM, 24 hrs): 50.1
Early Apoptosis [A-V*/PI*] (Human white adipocytes; 450 μM, 48 hrs): 44.9
Necrosis/ Late Apoptosis [A-V*/PI*] (Human white adipocytes; 450 μM, 48 hrs): 26
Normal [A-V*/PI] (Human white adipocytes; 450 μM, 48 hrs): 29.1
apoptosis/necrosis induction in human adipocytes (in words) (Human white adipocytes): clear apoptosis after 5 hrs with virtually no necrosis

Fc1ccc([C@@H]2CCNC[C@H]2COc2ccc3c(c2)OCO3)cc1 [Paroxetine]
IC50 (human adipocyte cells [1]; [5]): 39.3 µM
IC50 (human adipocyte cells [2]; Homo sapiens, Adipocyte): ~31.2 µM

Clc1ccc(C(Cn2ccnc2)OCc2ccsc2Cl)c(Cl)c1 (stereo not drawn) [Thioconazole]
IC50 (human adipocyte cells [1]; read-out: IC50 48 hrs Resazurin, Example 2, 48 hrs): 10.5 µM
IC50 (human adipocyte cells [2]): ~7.4 µM

COc1ccc([C@@H]2Sc3ccccc3N(CCN(C)C)C(=O)[C@@H]2OC(C)=O)cc1.Cl [Test substance 6, Diltiazem HCl]
IC50 (human adipocyte cells [1]; read-out: IC50 (metabolic activity after 48 hrs), Example 1, 48 hrs exposure, resazurin): 800 µM
Rel. max. LDH release [%] 48 hrs (human adipocyte cells [2]): 94.5%

CN1CCN(CCCN2c3ccccc3Sc3ccc(C(F)(F)F)cc32)CC1 [Trifluoperazine]
IC50 (human adipocyte cells [1]; [5]): 17.4 µM
IC50 (human adipocyte cells [2]; Homo sapiens, Adipocyte): ~14.3 µM
